Experimental data as given in the supplement of paper PMC10307832.

Tests used:
Assay in all cases: relative viability (nuclei count vs DMSO), 5 days (fraction); higher = more cells survive
[1] = compound: CN(C)CC1=CC(=CC=C1)N=C(C2=CC=CC=C2)C3=C(NC4=C3C=CC(=C4)C(=O)N(C)C)O + Nc1ncn([C@H]2C[C@H](O)[C@@H](CO)O2)c(=O)n1 [Decitabine] (partner 2 µM)
In short: (§1)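 Medians of duplicate plates are given as relative viability. That measure is the nuclei count in treated wells divided by the count in vehicle wells. Counts were taken on 4× images of lung cancer cell lines in 1536-well plates, 5 days after pin-tool dosing the day after seeding with one drug alone or a fixed anchor-drug dose plus five library-drug doses (not always all listed) in √10 steps.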

[2] = compound: CN(C)CC1=CC(=CC=C1)N=C(C2=CC=CC=C2)C3=C(NC4=C3C=CC(=C4)C(=O)N(C)C)O + NC(=O)Nc1cc(-c2cccc(F)c2)sc1C(=O)N[C@H]1CCCNC1 [AZD7762] (partner 0.2 µM)
In short: as §1

[3] = compound: CN(C)CC1=CC(=CC=C1)N=C(C2=CC=CC=C2)C3=C(NC4=C3C=CC(=C4)C(=O)N(C)C)O + CS(=O)(=O)CCNCc1ccc(-c2ccc3ncnc(Nc4ccc(OCc5cccc(F)c5)c(Cl)c4)c3c2)o1 [Lapatinib] (partner 2 µM)
In short: as §1

[4] = compound: CN(C)CC1=CC(=CC=C1)N=C(C2=CC=CC=C2)C3=C(NC4=C3C=CC(=C4)C(=O)N(C)C)O + CC(C)C[C@H](NC(=O)[C@H](Cc1ccccc1)NC(=O)c1cnccn1)B(O)O [Bortezomib] (partner 0.002 µM)
In short: as §1

| Cell Line | relative viability ([1]; first compound 0.08 µM) | relative viability ([1]; first compound 0.253 µM) | relative viability ([1]; first compound 0.8 µM) | relative viability ([1]; first compound 2.53 µM) | relative viability ([1]; first compound 8 µM) | relative viability ([2]; first compound 0.08 µM) | relative viability ([2]; first compound 0.253 µM) | relative viability ([2]; first compound 0.8 µM) | relative viability ([2]; first compound 2.53 µM) | relative viability ([2]; first compound 8 µM) | relative viability ([3]; first compound 0.08 µM) | relative viability ([3]; first compound 0.253 µM) | relative viability ([3]; first compound 0.8 µM) | relative viability ([3]; first compound 2.53 µM) | relative viability ([3]; first compound 8 µM) | relative viability ([4]; first compound 0.08 µM) | relative viability ([4]; first compound 0.253 µM) | relative viability ([4]; first compound 0.8 µM) | relative viability ([4]; first compound 2.53 µM) | relative viability ([4]; first compound 8 µM) |
| --- | --- | --- | --- | --- | --- | --- | --- | --- | --- | --- | --- | --- | --- | --- | --- | --- | --- | --- | --- | --- |
| NCI-H1975 | 0.45 | 0.409 | 0.368 | 0.397 | 0.381 | 0.756 | 0.761 | 0.68 | 0.692 | 0.707 | 0.948 | 0.81 | 0.835 | 0.742 | 0.951 | 0.444 | 0.381 | 0.319 | 0.326 | 0.381 |
| NCI-H1993 | 0.643 | 0.55 | – | 0.617 | 0.687 | 0.59 | 0.705 | – | 0.937 | 0.877 | 1.09 | 0.882 | 0.827 | 0.826 | 0.706 | 1.04 | 1.11 | 0.748 | 1.22 | 1.36 |
| NCI-H2085 | 0.521 | 0.571 | 0.622 | 0.547 | 0.646 | 1.03 | 0.978 | 0.995 | 0.988 | 0.969 | 0.791 | 0.844 | 0.758 | 0.758 | 0.733 | 1.07 | 0.953 | 0.993 | 1.01 | 1.07 |
| NCI-H2087 | 0.385 | 0.368 | 0.267 | 0.266 | 0.236 | 1.13 | 1.28 | 1.36 | 1.45 | 1.33 | 1.08 | 0.835 | 1.1 | 0.942 | 1.05 | 0.656 | 0.785 | 0.986 | 0.816 | 1.03 |
| NCI-H2126 | 0.568 | 0.602 | 0.598 | 0.606 | 0.633 | 0.974 | 0.96 | 0.931 | 0.943 | 0.976 | 0.76 | 0.762 | 0.73 | 0.765 | 0.762 | 1.14 | 1.08 | 1.13 | 1.07 | 1.1 |
| NCI-H2347 | 0.631 | 0.634 | 0.583 | 0.635 | 0.679 | 0.898 | 0.647 | 0.7 | 0.719 | 0.734 | 1.01 | 0.899 | 0.975 | 0.953 | 0.963 | 0.828 | 1.22 | 0.83 | 1.17 | 1.12 |
| NCI-H2405 | 0.78 | 0.77 | 0.758 | 0.67 | 0.696 | 0.715 | 0.72 | 0.713 | 0.659 | 0.681 | 1.06 | 1.09 | 1.15 | 0.999 | 0.963 | 0.976 | 1.02 | 0.976 | 0.954 | 0.951 |
| NCI-H3122 | 0.508 | 0.387 | 0.454 | 0.504 | 0.46 | 1.01 | 0.967 | 1.03 | 1.02 | 1.07 | 0.96 | 0.971 | 1.01 | 0.983 | 0.997 | 0.984 | 0.99 | 1.06 | 0.959 | 0.98 |
